Results on eleven compounds are retold here after ChEMBL document CHEMBL1201862, “PubChem BioAssay data set” (2004).

Holding throughout (assay): DTP human tumour cell line panel, 48 h
The subject of experiment [1] is EKVX.
Experiment [2] concerns LOX IMVI.
In experiment [3] the test system is OVCAR-3.
The test system of experiment [4] is NCI/ADR-RES.
Experiment [5] deals with MDA-MB-231.
The test system of experiment [6] is HCT-116.
Experiment [7] concerns TK-10.
For experiment [8], the system named is UACC-257.
Experiment [9] concerns 786-0.
The test system of experiment [10] is SK-OV-3.
Experiment [11] relates to SNB-19.
Experiment [12] deals with SF-539.
Experiment [13] deals with COLO 205.
Experiment [14] concerns MDA-MB-435.
Experiment [15] concerns SNB-75.
Experiment [16] deals with M14.
Experiment [17] deals with UACC-62.
Experiment [18] has as its system OVCAR-5.
The subject of experiment [19] is HOP-92.
The test system of experiment [20] is SR.

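Step 1: Grow cells in 96-well plates. Step 2: Expose to compound for 48 hours at 5 concentrations. Step 3: Interpolate endpoints linearly; if unreached, use highest concentration. GI50: concentration for 50% inhibition of growth.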 The source made the active and inactive calls. Cut-off read from the data, not from the text of the source: active = GI50 up to about 1.1 µM and inactive = higher. Residues, ends and D or L forms follow the SMILES beside them. *: point of attachment. Boc = CC(C)(C)OC(=O)* Bounds are passed on as bounds.

Consider `COc1cc2c[n+](C)c3c4cc(OC)c(OC)cc4c(OC)cc3c2cc1OC`, for which the GI50 in [1] was > 74.1 µM (inactive); in [2], 16.7 µM (inactive); in experiment [3] it was 2.34 µM (inactive); in [4], > 100 µM (inactive); in experiment [5] it was 0.53 µM (active); in [6] it was 2.92 µM (inactive). In addition, the GI50 is > 100 µM (inactive) in experiment [7]; 2.86 µM (inactive) in experiment [8]; 5.43 µM (inactive) in experiment [9]; 42.2 µM (inactive) in experiment [10]; 1.03 µM (active) in experiment [11]; 1.87 µM (inactive) in experiment [12]. In addition, the GI50 in [13] was 1.2 µM (inactive); in experiment [14], 11.2 µM (inactive); in experiment [15], 7.91 µM (inactive); in [16], 30.5 µM (inactive); in experiment [17], 6.27 µM (inactive); in experiment [18], > 100 µM (inactive).

As to `O=C(CN1C(=O)c2ccccc2C1=O)OCC1CCCN2CCCCC12` (stereo unspecified), the GI50 in experiment [1], in experiment [2], in experiment [4], in [5], in [6] and in experiment [7] was > 100 µM (inactive) each time. For the same compound, the GI50 was > 100 µM (inactive) in experiment [8]; > 100 µM (inactive) in [9]; > 100 µM (inactive) in [10]; > 100 µM (inactive) in [11]; > 100 µM (inactive) in [12]; 99.5 µM (inactive) in [13]. The GI50 in experiment [14], in experiment [15], in [17] and in experiment [19] was > 100 µM (inactive) throughout.

Regarding `CC1(C)C2CCC(N)(C2)C1N` (stereo unspecified), the GI50 in experiment [1], in [2], in experiment [3], in experiment [4], in [6] and in experiment [7] was > 100 µM (inactive) throughout. Also, the GI50 in experiment [8], in experiment [9], in experiment [10], in experiment [11], in experiment [20] and in experiment [13] was > 100 µM (inactive) each time. Further, the GI50 is > 100 µM (inactive) in [14]; > 100 µM (inactive) in experiment [15]; > 100 µM (inactive) in experiment [16]; > 100 µM (inactive) in experiment [17]; 21.1 µM (inactive) in experiment [19]; > 100 µM (inactive) in experiment [18].

In the case of `c1ccc2c(c1)ccc1nc3ccccn3c12`, the GI50 in experiment [1] was 68.5 µM (inactive); in experiment [3], > 100 µM (inactive); in experiment [4] it was > 100 µM (inactive); in experiment [7], > 100 µM (inactive); in experiment [8] it was > 100 µM (inactive); in experiment [9], > 100 µM (inactive). In addition, the GI50 in experiment [10] is 35.2 µM (inactive); in experiment [11] it was > 100 µM (inactive); in experiment [20], > 100 µM (inactive); in experiment [12], > 100 µM (inactive); in experiment [13] it was > 100 µM (inactive); in experiment [14] it was > 100 µM (inactive). Moreover, the GI50 in experiment [15], in experiment [16], in experiment [17], in [19] and in [18] was > 100 µM (inactive) throughout.

Consider `COc1cc2c(cc1NC(=O)c1ccccc1)c1c(n2S(=O)(=O)c2ccccc2)CCN(S(=O)(=O)c2ccccc2)C1`, for which the GI50 in [2], in [3], in [4], in [6], in [8] and in experiment [9] was > 100 µM (inactive) in each case. The GI50 in experiment [10], in [11], in experiment [20], in [13], in experiment [14] and in experiment [15] was > 100 µM (inactive) throughout. The GI50 in experiment [16], in experiment [17], in [19] and in experiment [18] was > 100 µM (inactive) throughout.

As for `COC(=O)C(Cc1c[nH]c2ccccc12)NC(=O)C(Cc1c[nH]c2ccccc12)NC(=O)C(Cc1c[nH]c2ccccc12)NC(=O)C(Cc1c[nH]c2ccccc12)NC(=O)OC(C)(C)C` (stereo unspecified) (Boc-WWWW-OMe; configuration not given here), the GI50 is 12.7 µM (inactive) in experiment [2]; 15.1 µM (inactive) in experiment [3]; > 100 µM (inactive) in [5]; 13.9 µM (inactive) in experiment [6]; 34.7 µM (inactive) in experiment [7]; 79.4 µM (inactive) in experiment [8]. Further, the GI50 in experiment [9] is 5.14 µM (inactive); in experiment [11] it was 31.9 µM (inactive); in [20], 4.51 µM (inactive); in [14] it was 23.4 µM (inactive); in experiment [15], 25.5 µM (inactive); in experiment [16], 30.1 µM (inactive). The GI50 in [17] is 15.6 µM (inactive); in experiment [18] it was > 100 µM (inactive).

With `Cc1nc(N)nc(N)c1CCCCc1ccccc1`, the GI50 was 20 µM (inactive) in [1]; 5.83 µM (inactive) in [2]; 9.95 µM (inactive) in experiment [3]; 5.21 µM (inactive) in [6]; 43.2 µM (inactive) in experiment [7]; 10.2 µM (inactive) in experiment [8]. Also, the GI50 is 4.52 µM (inactive) in experiment [9]; 31.9 µM (inactive) in [10]; 32.4 µM (inactive) in [11]; 13.3 µM (inactive) in experiment [20]; 10.7 µM (inactive) in experiment [12]; 8.43 µM (inactive) in [13]. Moreover, the GI50 in [15] was 47 µM (inactive); in [16], 6.21 µM (inactive); in experiment [17], 5.28 µM (inactive); in [19], 22.5 µM (inactive); in experiment [18] it was 6.93 µM (inactive).

On to `CCOc1ccc(N/C(=C(/C(Cl)=C(/Cl)N2CCCCC2)[N+](=O)[O-])n2nnc3ccccc32)cc1`, for which the GI50 in experiment [1] is 19.3 µM (inactive); in experiment [3], 17.4 µM (inactive); in experiment [4], 19.3 µM (inactive); in experiment [5] it was 20.9 µM (inactive); in experiment [6] it was 16.7 µM (inactive); in experiment [7], 32.8 µM (inactive). Further, the GI50 was 16.9 µM (inactive) in experiment [8]; 18.7 µM (inactive) in experiment [9]; 28.9 µM (inactive) in experiment [10]; 19.9 µM (inactive) in experiment [11]; 16.4 µM (inactive) in experiment [12]; 20.6 µM (inactive) in experiment [13]. The GI50 in [14] was 8.49 µM (inactive); in experiment [15] it was 19.9 µM (inactive); in [16], 14.9 µM (inactive); in experiment [17] it was 14.4 µM (inactive); in [19], 18.2 µM (inactive); in [18], 16.7 µM (inactive).

As to `CNC(=O)OCc1nc([S+](C)[O-])n(C)c1COC(=O)NC` (stereo unspecified), the GI50 in experiment [1], in experiment [2], in experiment [3], in experiment [4], in experiment [6] and in [7] was > 100 µM (inactive) throughout. The GI50 in [8] is > 100 µM (inactive); in experiment [9] it was > 100 µM (inactive); in experiment [10], > 44.1 µM (inactive); in experiment [11] it was > 100 µM (inactive); in experiment [20] it was > 100 µM (inactive); in experiment [12] it was > 100 µM (inactive). Moreover, the GI50 in experiment [13] was > 41.8 µM (inactive); in experiment [15], > 100 µM (inactive); in [16], > 29.1 µM (inactive); in experiment [17] it was > 49.1 µM (inactive); in experiment [19], > 48.4 µM (inactive); in experiment [18], > 100 µM (inactive).

As to `O=C1Nc2cc(Cl)ccc2C(=O)N2CCC[C@@H]12`, the GI50 in [1], in experiment [2], in [4], in experiment [5], in experiment [6] and in [7] was > 100 µM (inactive) in each case. The GI50 is > 100 µM (inactive) in [8]; > 100 µM (inactive) in experiment [9]; > 100 µM (inactive) in experiment [10]; > 100 µM (inactive) in experiment [11]; 57.1 µM (inactive) in [13]; > 100 µM (inactive) in [14]. The GI50 in experiment [15], in experiment [16], in [17], in experiment [19] and in experiment [18] was > 100 µM (inactive) each time.

Regarding `COc1ccc(-c2c3ccccc3c(-c3ccc(OC)cc3)c3ccccc23)cc1`, the GI50 in experiment [1], in experiment [2], in experiment [3], in experiment [6], in experiment [7] and in [8] was > 100 µM (inactive) each time. Besides, the GI50 in experiment [9], in experiment [10], in experiment [11], in experiment [20], in [12] and in experiment [13] was > 100 µM (inactive) in each case. The GI50 in [15] is 29.5 µM (inactive); in experiment [16] it was > 100 µM (inactive); in experiment [17], > 100 µM (inactive); in experiment [19], > 100 µM (inactive); in experiment [18] it was > 100 µM (inactive).
